Data published in patent US20190134005A1 (BioMarin Pharmaceutical Inc., priority 2016, published 2019).

Target: T1, human CGT (Homo sapiens, UniProt Q16880)
T1 sequence (Q16880 21-541): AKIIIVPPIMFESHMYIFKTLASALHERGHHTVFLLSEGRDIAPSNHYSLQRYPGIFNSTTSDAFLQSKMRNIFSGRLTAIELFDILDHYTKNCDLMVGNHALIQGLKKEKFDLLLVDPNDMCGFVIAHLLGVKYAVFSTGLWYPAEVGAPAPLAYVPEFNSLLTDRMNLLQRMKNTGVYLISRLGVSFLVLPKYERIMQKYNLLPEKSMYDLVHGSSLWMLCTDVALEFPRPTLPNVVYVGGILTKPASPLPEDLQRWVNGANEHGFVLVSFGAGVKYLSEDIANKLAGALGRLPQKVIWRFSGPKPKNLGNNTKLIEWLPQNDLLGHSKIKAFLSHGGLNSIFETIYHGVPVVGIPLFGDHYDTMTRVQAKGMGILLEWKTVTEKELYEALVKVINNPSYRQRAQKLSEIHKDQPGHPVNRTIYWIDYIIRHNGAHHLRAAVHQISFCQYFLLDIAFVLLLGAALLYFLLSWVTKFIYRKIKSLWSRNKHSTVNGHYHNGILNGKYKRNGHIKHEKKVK
Experiment: CGT Enzyme Assay (Biological Example 2, RapidFire/MS/MS method with 0.01% Tween 80 added)
Format: biochemical
Conditions: enzymatic assay, CHO/CGT lysate
How it was run: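 Lysate of CHO cells transfected with full-length human CGT, 0.5% DMSO final, 0.01% Tween 80 added; reactions stopped with methanol:acetonitrile holding internal standard. C6-NBD-dihydro-galactosylceramide and C6-NBD-dihydro-ceramide measured by RapidFire/MS/MS (ESI negative), product peak area normalized to internal standard.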

Row | IC50 | Structure (SMILES)
1 | 1 to 10 µM | CC[C@@]1(C)[C@H](c2cccc(OC(F)(F)F)c2)N(c2ccc(C#N)cc2)C(=O)N1c1ccc(C#N)cc1 [Example 51-5, 4,4′-((4S,5S)-4-ethyl-4-methyl-2-oxo-5-(3-(trifluoromethoxy)phenyl)imidazolidine-1,3-diyl)dibenzonitrile]
2 | 10 to 30 µM | CC1(C)[C@@H](c2cccc(C(F)(F)F)c2)N(c2ccc(Cl)cc2)C(=O)N1c1ccc(Cl)cc1 [Example 6-1, (R)-1,3-bis(4-chlorophenyl)-4,4-dimethyl-5-(3-(trifluoromethyl)phenyl)imidazolidin-2-one]
3 | < 1 µM | Cc1ccc(N2C(=O)N(c3ccc(Cl)cc3)[C@@H](c3cccc(OC(F)(F)F)c3)C23COC3)cc1 [Example 49-2]
4 | 10 to 30 µM | CC1(C)[C@@H](c2cccc(OC(F)(F)F)c2)N(c2cccc(Cl)c2)C(=O)N1c1cccc(Cl)c1 [Example 28-1, (R)-1,3-bis(3-chlorophenyl)-4,4-dimethyl-5-(3-(trifluoromethoxy)phenyl)imidazolidin-2-one]
5 | 10 to 30 µM | CCC[C@@]1(C)[C@H](c2cccc(OC(F)(F)F)c2)N(c2ccc(Cl)cc2)C(=O)N1c1ccc(Cl)cc1 [Example 22-5, (4S,5S)-1,3-bis(4-chlorophenyl)-4-methyl-4-propyl-5-(3-(trifluoromethoxy)phenyl)imidazolidin-2-one]
6 | 10 to 30 µM | CC1(C)[C@@H](c2cccc(OC(F)(F)F)c2)N(c2ccccc2)C(=O)N1c1ccccc1 [Example 26-1, (R)-4,4-dimethyl-1,3-diphenyl-5-(3-(trifluoromethoxy)phenyl)imidazolidin-2-one]
7 | < 1 µM | Cc1ccc(N2C(=O)N(c3ccc(C#N)cc3)C3(COC3)[C@@H]2c2cccc(C#N)c2)cc1 [Example 57-2, (S)-3-(5-(4-cyanophenyl)-6-oxo-7-(p-tolyl)-2-oxa-5,7-diazaspiro[3.4]octan-8-yl)benzonitrile]
8 | < 1 µM | CC1(C)C(c2cccc(OC(F)F)c2)N(c2ccc(Cl)cc2)C(=O)N1c1ccc(Cl)cc1 (stereo not shown) [Example 9]
9 | < 1 µM | CC1(C)[C@@H](c2cccc(C#N)c2)N(c2ccc(C(F)(F)F)cc2)C(=O)N1c1ccc(C(F)(F)F)cc1 [Example 24-1, (R)-3-(5,5-dimethyl-2-oxo-1,3-bis(4-(trifluoromethyl)phenyl)imidazolidin-4-yl)benzonitrile]
10 | < 1 µM | CC[C@]1(C)[C@H](c2cccc(OC(F)(F)F)c2)N(c2ccc(Cl)cc2)C(=O)N1c1ccc(Cl)cc1 [Example 19-2, (4R,5S)-1,3-bis(4-chlorophenyl)-4-ethyl-4-methyl-5-(3-(trifluoromethoxy)phenyl)imidazolidin-2-one]
11 | 1 to 10 µM | C[C@@H]1[C@@H](c2cccc(OC(F)(F)F)c2)N(c2ccc(Br)cc2)C(=O)N1c1ccc(Br)cc1 [Example 11-1, (4R,5R)-1,3-bis(4-bromophenyl)-4-methyl-5-(3-(trifluoromethoxy)phenyl)imidazolidin-2-one]
12 | 10 to 30 µM | C[C@@H]1[C@@H](c2cccc(C#N)c2)N(c2ccc(Cl)cc2)C(=O)N1c1ccc(Cl)cc1 [Example 5-1, 3-((4R,5R)-1,3-bis(4-chlorophenyl)-5-methyl-2-oxoimidazolidin-4-yl)benzonitrile]
13 | < 1 µM | Cc1ccc(N2C(=O)N(c3ccc(C#N)cc3)C3(COC3)[C@@H]2c2cccc(OC(F)(F)F)c2)cc1 [Example 43-2, (S)-4-(6-oxo-7-(p-tolyl)-8-(3-(trifluoromethoxy)phenyl)-2-oxa-5,7-diazaspiro[3.4]octan-5-yl)benzonitrile]
14 | 10 to 30 µM | Cc1ccc(N2C(=O)N(c3ccc(C#N)cc3)[C@H](c3cccc(C#N)c3)C23COC3)cc1 [Example 55-1, (R)-3-(7-(4-cyanophenyl)-6-oxo-5-(p-tolyl)-2-oxa-5,7-diazaspiro[3.4]octan-8-yl)benzonitrile]
15 | < 1 µM | CC1(C)C(c2cccc(C(F)(F)F)c2)N(c2ccc(Cl)cc2)C(=O)N1c1ccc(Cl)cc1 (stereo not shown) [Example 6]
16 | < 1 µM | Cc1ccc(N2C(=O)N(c3ccc(C)cc3)C3(COC3)[C@@H]2c2cccc(C#N)c2)cc1 [Example 32-2, (S)-3-(6-oxo-5,7-di-p-tolyl-2-oxa-5,7-diazaspiro[3.4]octan-8-yl)benzonitrile]
